Reference: the NIST ThermoML archive (doi:10.1021/acs.jced.7b00201)

Assay: xn = mol fraction of the nth substance listed
Settings: 100 kPa, Liquid; for viscosity: Falling or rolling sphere viscometry; for mass density: Vibrating tube method

CCCCC1CCCCC1 [butylcyclohexane] + CCCCCCCCCCCC
Settings	mass density [kg/m3]	viscosity [mPa·s]
293.15 K, x2 = 0	799.34	1.305
293.15 K, x2 = 0.1017	792.77	1.319
293.15 K, x2 = 0.1996	786.82	1.334
293.15 K, x2 = 0.2951	781.36	1.348
293.15 K, x2 = 0.4221	774.55	1.369
293.15 K, x2 = 0.5126	769.99	1.384
293.15 K, x2 = 0.6256	764.59	1.404
293.15 K, x2 = 0.7002	761.2	1.418
293.15 K, x2 = 0.7989	756.92	1.437
293.15 K, x2 = 0.9012	752.7	1.457
298.15 K, x2 = 0	795.59	1.202
298.15 K, x2 = 0.1017	789.05	1.215
298.15 K, x2 = 0.1996	783.12	1.228
298.15 K, x2 = 0.2951	777.68	1.241
298.15 K, x2 = 0.4221	770.9	1.258
298.15 K, x2 = 0.5126	766.35	1.272
298.15 K, x2 = 0.6256	760.96	1.289
298.15 K, x2 = 0.7002	757.57	1.3
298.15 K, x2 = 0.7989	753.3	1.318
298.15 K, x2 = 0.9012	749.09	1.335
303.15 K, x2 = 0	791.84	1.112
303.15 K, x2 = 0.1017	785.32	1.123
303.15 K, x2 = 0.1996	779.41	1.135
303.15 K, x2 = 0.2951	773.99	1.146
303.15 K, x2 = 0.4221	767.22	1.162
303.15 K, x2 = 0.5126	762.68	1.173
303.15 K, x2 = 0.6256	757.3	1.187
303.15 K, x2 = 0.7002	753.92	1.197
303.15 K, x2 = 0.7989	749.66	1.211
303.15 K, x2 = 0.9012	745.45	1.226
308.15 K, x2 = 0	788.07	1.033
308.15 K, x2 = 0.1017	781.58	1.043
308.15 K, x2 = 0.1996	775.69	1.053
308.15 K, x2 = 0.2951	770.28	1.063
308.15 K, x2 = 0.4221	763.53	1.076
308.15 K, x2 = 0.5126	759.01	1.086
308.15 K, x2 = 0.6256	753.64	1.1
308.15 K, x2 = 0.7002	750.27	1.108
308.15 K, x2 = 0.7989	746.01	1.122
308.15 K, x2 = 0.9012	741.81	1.137
313.15 K, x2 = 0	784.3	0.963
313.15 K, x2 = 0.1017	777.82	0.971
313.15 K, x2 = 0.1996	771.96	0.98
313.15 K, x2 = 0.2951	766.57	0.989
313.15 K, x2 = 0.4221	759.84	1.001
313.15 K, x2 = 0.5126	755.32	1.009
313.15 K, x2 = 0.6256	749.97	1.021
313.15 K, x2 = 0.7002	746.6	1.029
313.15 K, x2 = 0.7989	742.35	1.041
313.15 K, x2 = 0.9012	738.16	1.054
318.15 K, x2 = 0	780.52	0.901
318.15 K, x2 = 0.1017	774.07	0.908
318.15 K, x2 = 0.1996	768.22	0.915
318.15 K, x2 = 0.2951	762.85	0.923
318.15 K, x2 = 0.4221	756.14	0.934
318.15 K, x2 = 0.5126	751.63	0.942
318.15 K, x2 = 0.6256	746.29	0.952
318.15 K, x2 = 0.7002	742.93	0.959
318.15 K, x2 = 0.7989	738.69	0.969
318.15 K, x2 = 0.9012	734.5	0.98
323.15 K, x2 = 0	776.74	0.844
323.15 K, x2 = 0.1017	770.3	0.851
323.15 K, x2 = 0.1996	764.47	0.858
323.15 K, x2 = 0.2951	759.12	0.864
323.15 K, x2 = 0.4221	752.42	0.874
323.15 K, x2 = 0.5126	747.93	0.881
323.15 K, x2 = 0.6256	742.6	0.89
323.15 K, x2 = 0.7002	739.25	0.896
323.15 K, x2 = 0.7989	735.02	0.905
323.15 K, x2 = 0.9012	730.84	0.915
328.15 K, x2 = 0	772.93	0.794
328.15 K, x2 = 0.1017	766.52	0.8
328.15 K, x2 = 0.1996	760.71	0.806
328.15 K, x2 = 0.2951	755.37	0.812
328.15 K, x2 = 0.4221	748.7	0.821
328.15 K, x2 = 0.5126	744.22	0.827
328.15 K, x2 = 0.6256	738.9	0.834
328.15 K, x2 = 0.7002	735.56	0.84
328.15 K, x2 = 0.7989	731.33	0.848
328.15 K, x2 = 0.9012	727.16	0.858
333.15 K, x2 = 0	769.13	0.749
333.15 K, x2 = 0.1017	762.73	0.754
333.15 K, x2 = 0.1996	756.94	0.759
333.15 K, x2 = 0.2951	751.62	0.763
333.15 K, x2 = 0.4221	744.96	0.771
333.15 K, x2 = 0.5126	740.49	0.775
333.15 K, x2 = 0.6256	735.19	0.781
333.15 K, x2 = 0.7002	731.86	0.787
333.15 K, x2 = 0.7989	727.64	0.794
333.15 K, x2 = 0.9012	723.48	0.803
338.15 K, x2 = 0	765.3	0.708
338.15 K, x2 = 0.1017	758.93	0.712
338.15 K, x2 = 0.1996	753.16	0.716
338.15 K, x2 = 0.2951	747.85	0.721
338.15 K, x2 = 0.4221	741.21	0.728
338.15 K, x2 = 0.5126	736.75	0.733
338.15 K, x2 = 0.6256	731.47	0.738
338.15 K, x2 = 0.7002	728.14	0.742
338.15 K, x2 = 0.7989	723.94	0.749
338.15 K, x2 = 0.9012	719.78	0.756
343.15 K, x2 = 0	761.47	0.67
343.15 K, x2 = 0.1017	755.12	0.674
343.15 K, x2 = 0.1996	749.37	0.678
343.15 K, x2 = 0.2951	744.07	0.682
343.15 K, x2 = 0.4221	737.45	0.687
343.15 K, x2 = 0.5126	733	0.691
343.15 K, x2 = 0.6256	727.73	0.696
343.15 K, x2 = 0.7002	724.41	0.701
343.15 K, x2 = 0.7989	720.22	0.708
343.15 K, x2 = 0.9012	716.08	0.715
